Where “and” joins values, the source holds several entries; their conditions need not be identical. Identical values can stand only once. Like-named read-outs stand apart in the source and are kept apart here.
How the values were obtained:
[1] = topical nepafenac, Cmax, cited from earlier work
[2] = DEPOT sub-Tenon's sac, steady-state, cited from earlier work
[3] = Dexamethasone periocular DEPOT (sub-Tenon injection), retina-choroid concentrations, literature comparison; assay type: in vivo; conditions: dexamethasone sub-Tenon DEPOT versus SD-8381 DEPOT
Protocol: For comparison, the concentrations in the retina-choroid for a DEPOT of a similar lipophilic small molecule, dexamethasone, when placed very close to the retina (sub-Tenon injection) were 0.31 and 0.93 μM [Huang Z, Yang W, Zong Y, Qiu S, Chen X, Sun X, Zhou Y, Xie Z, and Gao Q. A study of the dexamethasone sodium phosphate release properties from a periocular capsular drug delivery system. Drug Delivery 2016:23; 839-847]. […] Also, these dexamethasone data are for a situation where drug delivery has been optimized.

Plasma protein binding = assay type: in vitro ADME
[4] = Rabbit study: subconjunctival DEPOT of the ethyl ester of SD-8381 in sesame oil, drug concentration in ocular tissues and plasma by LC-MS; assay type: in vivo, DB rabbits
Protocol: All reagents were obtained from Sigma-Aldrich with the exception that sesame oil was obtained from Sawall, 2965 Oakland Dr, Kalamazoo, Mich. The ethyl ester of SD-8381 was formulated in sesame oil as a saturated solution at room temperature. Saturation was assured by warming under water warm to the touch for 10 minutes and noting that upon returning to room temperature the powder was in equilibrium with what was apparently a crystalline form of the drug in that the small amount of remaining drug was now transparent (for example, the compound had clearly dissolved and crystallized out of solution). The formulation was checked for topical instillation irritancy. Two male DB rabbits were sedated with isoflurane vapors to effect. Eyes were anesthetized with topical proparacaine, the area treated with ophthalmic betadine and rinsed with sterile saline. The test article was injected (0.05 mL) as a subconjunctival DEPOT to two male DB rabbits, OU using a 29 g needle.
The rabbits were sacrificed at a 6-days. Samples collected were (bilateral) aqueous humor, iris plus ciliary body, cornea, conjunctiva, sclera, choroid, retina, lens, vitreous humor and plasma which were placed in tared vials and stored at −20° C. prior to analysis. Care was taken to not cross contaminate fields by dissecting high concentration tissues as separately as possible from other tissues.
The free acid of SD-8381 was formed enzymatically using ethyl 6,8-dichloro-2-(trifluoromethyl)-2H-chromene-3-carboxylate and porcine esterase (all reagents and chemicals are from Sigma-Aldrich). The reaction was initiated by adding 5 mg of compound in methanol to 8 mg of esterase in 250 μL of 50 mM potassium phosphate pH 8 buffer. The reaction proceeded at 37° C. and was complete after 3 hours. Conversion of the […] to the free acid was monitored using HPLC-UV with 254 nm detection and confirmed by flow injection analysis using a Waters Quattro Micro mass spectrometer in negative ion mode at unit resolution. SD-8381 free acid was purified by HPLC fraction collection using a 4.6×250 mm Agilent Eclipse XDB-C18 column using 0.1% formic acid/H2O/acetonitrile mobiles phases. Fractions containing the free acid were dried in a weighed tube using a SpeedVac concentrator.
Free acid SD-8381 was reconstituted in methanol to establish w/v concentration standards for LC-MS analysis. Analytical standards were prepares using EDTA mouse plasma from BioVT. A dilution series of free acid SD-8381 in methanol were spiked into mouse plasma and each concentration was combined with 3 volumes of methanol containing 1 μM diclofenac as a surrogate internal standard as no stable-isotope labeled internal standard (SIL-IS) of SD-8381 is currently available. Standards and plasma blanks were vortex mixed and centrifuged at 13K×g for 5 minutes. Supernatant was transferred to glass insert vials and immediately analyzed by LC-MS analysis. Tissue samples were homogenized using a GE Healthcare sample grinding kit #80-6483-37 and 1 volume of DPBS containing 50% methanol. Proteins were precipitated using 2 additional volumes of methanol and vortex mixing for 5 minutes. Samples were centrifuged at 13K×g for 5 minutes. Supernatant was removed and dried in a SpeedVac concentrator under medium heat. Sample was reconstituted using methanol containing 1 uM Diclofenac. Samples were analyzed using a Waters nanoAcquity UPLC in-line with a high-resolution Waters Synapt G2-S mass spectrometer via an electrospray ion source. UPLC separation of used performed using a 0.375 mm×10 cm Waters XBridge C18 3.5 u column and a flow rate of 10 μL per minute. Mobile phases were 0.1% formic acid in water as mobile phase A and 0.1% formic acid in acetonitrile as mobile phase B. Gradient elution was accomplished with 1% B initial sample loading with ramping to 95% B at 3 minutes, holding at 95% B for 5 minutes, and returning to 1% B at 8.1 minutes. Total run time was 12 minutes and 5 μL of sample was injected per analysis. […]

[5] = DEPOT, steady-state, 6 days, high value of the same subject dropped
[6] = SD-8381 free acid measured, subconjunctival DEPOT 0.05 mL OU of ethyl ester in sesame oil, rabbits sacrificed at 6 days

**Q.** With `Nc1c(CC(=O)O)cccc1C(=O)c1ccccc1` [Amfenac, 2-amino-3-benzoylbenzeneacetic acid] as the compound, how does the Anterior choroid concentration [1] read?
**A.** (0.47) μM

**Q.** What about the Anterior retina concentration [1] of the same compound?
**A.** (0.011) μM

**Q.** And the Posterior choroid concentration [1]?
**A.** 0.042 µM

**Q.** And the Posterior retina concentration [1]?
**A.** 0.00077 µM

**Q.** What about the Anterior choroid concentration ([1]; listed as amfenac) of the same compound?
**A.** 0.468 µM

**Q.** And the Anterior retina concentration ([1]; listed as amfenac)?
**A.** 0.011 µM

**Q.** And the Posterior choroid concentration ([1]; listed as amfenac)?
**A.** 0.0418 µM

**Q.** What about the Posterior retina concentration ([1]; listed as amfenac) of the same compound?
**A.** 0.000765 µM

**Q.** Which Choroid concentration [2] does the source give for `C[C@@H]1C[C@H]2[C@@H]3CCC4=CC(=O)C=C[C@]4(C)[C@@]3(F)[C@@H](O)C[C@]2(C)[C@@]1(O)C(=O)CO` [Dexamethasone, dexamethasone] here?
**A.** 0.92 µM

**Q.** What about the Retina concentration [2] of the same compound?
**A.** 0.31 µM

**Q.** And the Choroid concentration ([2]; listed as dexamethasone)?
**A.** 0.93 µM

**Q.** And the “Retina-choroid concentration compared with SD-8381” value [3]?
**A.** almost two orders of magnitude less

**Q.** With `NC(=O)Cc1cccc(C(=O)c2ccccc2)c1N` [Nepafenac, 2-amino-3-benzoylbenzeneacetamide] as the compound, how does the Anterior choroid concentration [1] read?
**A.** (0.71) μM

**Q.** What about the Anterior retina concentration [1] of the same compound?
**A.** (0.11) μM

**Q.** What about the Posterior choroid concentration [1] of the same compound?
**A.** 0.055 µM

**Q.** What about the Posterior retina concentration [1] of the same compound?
**A.** 0.0027 µM

**Q.** What about the Anterior choroid concentration ([1]; listed as nepafenac) of the same compound?
**A.** 0.714 µM

**Q.** What about the Anterior retina concentration ([1]; listed as nepafenac) of the same compound?
**A.** 0.110 µM

**Q.** And the Posterior choroid concentration ([1]; listed as nepafenac)?
**A.** 0.0551 µM

**Q.** What about the Posterior retina concentration ([1]; listed as nepafenac) of the same compound?
**A.** 0.00272 µM

**Q.** Which “Binding to plasma proteins” value (Plasma protein binding) does the source give for `O=C(O)C1=Cc2cc(Cl)cc(Cl)c2OC1C(F)(F)F` (stereo not drawn) [SD-8381, 6.8-Dichloro-2-trifluoromethyl-2H-1-benzopyran-3-carboxylic acid] here?
**A.** highly bound to plasma proteins

**Q.** What about the “Choroid concentration, mean (n = 4)” value ([4]; DEPOT, steady-state, 6 days) of the same compound?
**A.** 96 (n = 4) μM

**Q.** And the “Retina concentration, mean (n = 4)” value ([4]; DEPOT, steady-state, 6 days)?
**A.** 13 (n = 4) μM

**Q.** What about the “Choroid concentration, average with high value dropped (n = 3)” value [4, 5] of the same compound?
**A.** 20.9 μM and 21 (n = 3)* μM

**Q.** What about the “Retina concentration, average with high value dropped (n = 3)” value [4, 5] of the same compound?
**A.** 5.17 μM and 5.2 (n = 3)* μM

**Q.** And the “Retina-choroid concentration at steady-state compared with nepafenac following topical administration” value ([4]; SD-8381 DEPOT versus literature nepafenac)?
**A.** approximately two orders of magnitude higher

**Q.** And the “Choroid concentration, individual values” [4, 6]?
**A.** 322 µM and 9.78 µM and 2.43 µM and 50.4 µM

**Q.** What about the “Retina concentration, individual values” [4, 6] of the same compound?
**A.** 36.8 µM and 2.01 µM and 9.14 µM and 4.37 µM

**Q.** What about the “Plasma concentration relative to ocular tissues (fold less)” value ([4]; plasma versus ocular tissues) of the same compound?
**A.** 10^2-10^4

**Q.** Which “Adverse events (excessive scratching, redness, other signs of irritation and pain)” value ([4]; subconjunctival DEPOT 0.05 mL OU, saturated solution in sesame oil, two male DB rabbits) does the source give for `CCOC(=O)C1=Cc2cc(Cl)cc(Cl)c2OC1C(F)(F)F` (stereo not drawn) [ethyl ester of SD-8381, ethyl 6,8-dichloro-2-(trifluoromethyl)-2H-chromene-3-carboxylate] here?
**A.** No apparent adverse events

Reference: patent US20200237715A1, “COX-2 Inhibitors for the Treatment of Ocular Disease” (priority 2019, published 2020)
